The results in this text go back to the Kinase Knowledgebase extract (Sharma et al. 2016).

pIC50: −log10 of the molar value. Square brackets hold non-standard residues; d marks the D form. Peptide text beside a SMILES is read from it. ξ: configuration not given here. pY = N[C@@H](Cc1ccc(OP(=O)(O)O)cc1)C(=O)O; Ile(3ξ) = CCC(C)[C@H](N)C(=O)O

Assay [1] addresses EGFR (human) (UniProt P00533). The note with it: a431.
Assay [2] has as its target EGFR (UniProt P00533).
Assay [3] has as its target PIK3CA (human) (UniProt P42336). The experiment in a line: Assessment of PIK3CA Kinase Activity in NZOV9 Cells.
Assay [4] shares this target. The experiment in a line: Assessment of PIK3CA Kinase Activity in NZB5 Cells.
Assay [5] addresses EGFR (UniProt P00533). This is another data set of the same source.
Assay [6] deals with EGFR (human) (UniProt P00533).
The target in assay [7] is EGFR (human) (UniProt P00533). To be noted: hn5.
The target in assay [8] is MAPK14 (human) (UniProt Q16539). The experiment in a line: Cell-Based Assay. To be noted: a375.
For assay [9], the target named is EGFR (human) (UniProt P00533). The note with it: a549.
In assay [10] the target is EGFR (human) (UniProt P00533). The note with it: a431. The source holds these as a separate data set.
For assay [11], the target named is PIK3CB (Human) (UniProt P42338). The assay is described as follows: Inhibition of PIK3CB Kinase (ATP Loss) Activity.
In assay [12] the target is EGFR (human) (UniProt P00533). This is another data set of the same source.
Assay [13] deals with EGFR (human) (UniProt P00533). To be noted: a431. This is another data set of the same source.
Assay [14] addresses EGFR (human) (UniProt P00533). To be noted: a431. This is another data set of the same source.
The target in assay [15] is PIK3CB;PIK3CG;PIK3CD;PIK3CA (human) (UniProt P48736). The assay is described as follows: Assessment of PIK3CA/PIK3CB/PIK3CD/PIK3CG Kinase Activity.
Assay [16] addresses MAPK14 (human) (UniProt Q16539). The experiment in a line: p38-mediated TNF-alpha Inhibition (LPS-Stimulated PBMCs). The note with it: pbmc.
For assay [17] the target is unchanged. The assay is described as follows: p38 --- TNF Inhibition (PBMC cells).
The target in assay [18] is PIK3CA (human) (UniProt P42336). The experiment in a line: Inhibition of PIK3CA Kinase Activity.
The target is the same in assay [19]. The assay is described as follows: Assesment of Cell Proliferation of IGROV-1 Cells Using SRB Assay.
Assay [20] addresses MAPK14 (human) (UniProt Q16539). The experiment in a line: Cellular Inhibition of MAPK14 Kinase in A549 Cells.

Chain of MAPK14 (human) (Q16539 whole entry, looked up): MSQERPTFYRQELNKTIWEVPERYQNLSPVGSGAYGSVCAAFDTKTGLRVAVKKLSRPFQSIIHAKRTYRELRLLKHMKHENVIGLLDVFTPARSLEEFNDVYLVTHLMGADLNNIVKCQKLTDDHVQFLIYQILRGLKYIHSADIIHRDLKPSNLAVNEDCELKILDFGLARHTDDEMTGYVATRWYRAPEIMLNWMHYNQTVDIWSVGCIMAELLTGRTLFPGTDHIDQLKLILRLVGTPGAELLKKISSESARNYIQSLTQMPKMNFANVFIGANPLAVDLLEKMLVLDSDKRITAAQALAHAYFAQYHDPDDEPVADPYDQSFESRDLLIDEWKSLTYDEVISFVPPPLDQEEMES
Chain of EGFR (P00533 whole entry, looked up): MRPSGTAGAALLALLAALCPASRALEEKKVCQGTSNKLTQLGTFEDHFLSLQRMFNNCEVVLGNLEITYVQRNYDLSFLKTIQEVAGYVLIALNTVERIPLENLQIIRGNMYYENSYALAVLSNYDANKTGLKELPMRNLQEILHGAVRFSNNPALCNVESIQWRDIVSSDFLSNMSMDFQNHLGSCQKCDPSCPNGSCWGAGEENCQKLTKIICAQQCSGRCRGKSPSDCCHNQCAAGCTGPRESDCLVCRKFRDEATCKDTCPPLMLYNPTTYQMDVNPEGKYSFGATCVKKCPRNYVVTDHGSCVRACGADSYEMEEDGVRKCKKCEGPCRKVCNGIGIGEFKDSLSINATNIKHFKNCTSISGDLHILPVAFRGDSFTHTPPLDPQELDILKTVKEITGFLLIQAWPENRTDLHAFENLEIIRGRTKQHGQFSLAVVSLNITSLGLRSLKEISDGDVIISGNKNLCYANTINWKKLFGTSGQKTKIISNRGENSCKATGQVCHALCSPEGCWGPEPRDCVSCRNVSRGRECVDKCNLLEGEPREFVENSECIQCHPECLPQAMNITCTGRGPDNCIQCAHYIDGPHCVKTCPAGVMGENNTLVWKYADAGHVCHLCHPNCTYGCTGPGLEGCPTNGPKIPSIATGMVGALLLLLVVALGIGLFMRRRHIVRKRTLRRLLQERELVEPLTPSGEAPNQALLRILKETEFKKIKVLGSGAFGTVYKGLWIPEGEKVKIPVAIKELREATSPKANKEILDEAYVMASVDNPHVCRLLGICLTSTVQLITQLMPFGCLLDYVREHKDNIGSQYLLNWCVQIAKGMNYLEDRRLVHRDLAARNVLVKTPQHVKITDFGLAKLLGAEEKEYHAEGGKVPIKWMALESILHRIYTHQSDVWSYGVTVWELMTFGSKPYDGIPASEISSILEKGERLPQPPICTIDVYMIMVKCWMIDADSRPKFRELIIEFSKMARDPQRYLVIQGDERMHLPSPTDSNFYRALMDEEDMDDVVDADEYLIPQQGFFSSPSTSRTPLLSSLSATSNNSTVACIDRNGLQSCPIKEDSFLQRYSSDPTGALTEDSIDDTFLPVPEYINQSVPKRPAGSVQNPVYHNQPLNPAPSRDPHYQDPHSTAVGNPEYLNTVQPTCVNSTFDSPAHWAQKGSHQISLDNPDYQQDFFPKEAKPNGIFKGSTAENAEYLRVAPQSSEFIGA
Chain of EGFR (human) (P00533 whole entry, looked up): as above
Chain of PIK3CA (human) (P42336 whole entry, looked up): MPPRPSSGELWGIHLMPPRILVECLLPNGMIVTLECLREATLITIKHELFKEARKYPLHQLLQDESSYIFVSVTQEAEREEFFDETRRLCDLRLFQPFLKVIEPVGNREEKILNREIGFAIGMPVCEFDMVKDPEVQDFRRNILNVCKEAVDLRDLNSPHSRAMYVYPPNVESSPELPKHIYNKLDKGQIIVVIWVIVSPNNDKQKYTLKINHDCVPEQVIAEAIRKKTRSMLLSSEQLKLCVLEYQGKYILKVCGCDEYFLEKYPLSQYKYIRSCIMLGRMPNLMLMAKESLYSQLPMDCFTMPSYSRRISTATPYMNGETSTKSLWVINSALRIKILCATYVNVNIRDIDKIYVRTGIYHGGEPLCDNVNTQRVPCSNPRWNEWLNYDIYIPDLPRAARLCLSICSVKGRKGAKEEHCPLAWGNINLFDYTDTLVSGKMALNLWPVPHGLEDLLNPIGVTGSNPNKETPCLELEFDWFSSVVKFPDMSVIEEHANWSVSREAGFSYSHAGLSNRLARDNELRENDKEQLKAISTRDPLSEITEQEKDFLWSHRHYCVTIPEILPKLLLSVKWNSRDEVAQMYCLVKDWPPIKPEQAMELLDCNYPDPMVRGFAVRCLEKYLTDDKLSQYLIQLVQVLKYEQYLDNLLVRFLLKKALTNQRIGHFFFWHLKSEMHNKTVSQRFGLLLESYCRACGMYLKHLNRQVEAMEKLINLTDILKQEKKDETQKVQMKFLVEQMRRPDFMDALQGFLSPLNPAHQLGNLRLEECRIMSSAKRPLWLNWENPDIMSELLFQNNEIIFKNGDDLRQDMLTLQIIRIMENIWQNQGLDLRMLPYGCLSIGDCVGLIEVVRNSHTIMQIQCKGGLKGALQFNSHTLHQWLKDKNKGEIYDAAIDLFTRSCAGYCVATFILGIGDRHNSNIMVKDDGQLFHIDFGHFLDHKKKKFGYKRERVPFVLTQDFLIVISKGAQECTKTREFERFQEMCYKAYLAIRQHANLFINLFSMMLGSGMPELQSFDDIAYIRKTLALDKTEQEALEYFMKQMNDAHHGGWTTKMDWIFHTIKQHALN
Chain of PIK3CB (Human) (P42338 whole entry, looked up): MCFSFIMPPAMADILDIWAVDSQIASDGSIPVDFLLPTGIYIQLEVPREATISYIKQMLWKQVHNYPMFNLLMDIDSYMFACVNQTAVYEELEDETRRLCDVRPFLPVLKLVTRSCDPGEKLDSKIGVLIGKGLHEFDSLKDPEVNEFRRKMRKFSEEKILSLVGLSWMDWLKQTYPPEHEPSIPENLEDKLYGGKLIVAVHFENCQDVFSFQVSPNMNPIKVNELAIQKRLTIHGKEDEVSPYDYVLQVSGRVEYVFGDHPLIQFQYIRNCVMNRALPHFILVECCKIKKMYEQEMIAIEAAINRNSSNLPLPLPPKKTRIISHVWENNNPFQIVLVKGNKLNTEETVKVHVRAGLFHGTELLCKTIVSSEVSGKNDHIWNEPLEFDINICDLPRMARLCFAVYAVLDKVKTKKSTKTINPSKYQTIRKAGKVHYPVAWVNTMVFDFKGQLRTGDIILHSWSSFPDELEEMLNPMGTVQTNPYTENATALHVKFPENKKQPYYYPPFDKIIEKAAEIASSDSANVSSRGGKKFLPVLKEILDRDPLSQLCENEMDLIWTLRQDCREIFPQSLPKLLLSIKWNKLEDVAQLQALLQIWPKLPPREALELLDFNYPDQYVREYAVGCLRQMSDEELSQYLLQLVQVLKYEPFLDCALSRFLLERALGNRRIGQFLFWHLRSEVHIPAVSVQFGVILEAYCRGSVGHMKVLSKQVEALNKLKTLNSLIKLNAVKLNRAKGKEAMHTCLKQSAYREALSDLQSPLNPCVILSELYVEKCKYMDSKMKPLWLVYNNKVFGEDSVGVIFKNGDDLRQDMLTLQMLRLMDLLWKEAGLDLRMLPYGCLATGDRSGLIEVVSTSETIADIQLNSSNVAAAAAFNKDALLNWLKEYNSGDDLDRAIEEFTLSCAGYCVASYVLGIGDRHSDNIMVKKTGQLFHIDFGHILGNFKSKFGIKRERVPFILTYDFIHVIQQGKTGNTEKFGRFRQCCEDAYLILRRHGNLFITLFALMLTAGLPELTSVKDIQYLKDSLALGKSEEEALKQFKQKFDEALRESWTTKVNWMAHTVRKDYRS

For the compound `CCOc1cc2ncc(C#N)c(Nc3ccc(OCc4ccccn4)c(Cl)c3)c2cc1NC(=O)/C=C/[C@@H]1C[C@@H](O)CN1C`, the pIC50 in assay [1] was 7.44. With `CCC(C)[C@H](NC(=O)[C@H](CCC(=O)O)NC(=O)[C@H](CCC(=O)O)NC(=O)[C@H](Cc1ccc(OP(=O)(O)O)cc1)NC(C)=O)C(=O)N[C@@H](CCC(=O)O)C(=O)O` (some centres undefined) (Ac-[pY]EE[Ile(3ξ)]E-OH), the pIC50 in assay [2] is ≥ 6.30. Regarding `Cc1ccc([N+](=O)[O-])cc1S(=O)(=O)N(C)N=Cc1cnn2cccc(C)c12`, in assay [3], the pIC50 was < 4.70.

In the case of `CC(=NN(C)S(=O)(=O)c1cc([N+](=O)[O-])ccc1C)c1cnn2ccc(Br)cc12`, the pIC50 in [3] and in assay [4] was < 4.70 in each case.

Consider `Ic1cccc(Nc2ncnc3ccccc23)c1`, for which, in assay [5], the pIC50 was 7.10. Turning to `C#Cc1cccc(Nc2ncnc3cc(OC)c(OCCCCC(=O)O)cc23)c1`, in assay [6], the pIC50 is ≥ 7.00. For `O=[N+]([O-])c1ccc2ncnc(Nc3cccc(Br)c3)c2c1`, the pIC50 in assay [5] was 6.05. `Oc1ccc(-c2nc3c(O)cc(O)cc3s2)cc1`: in [7], the negative-log IC50 (pIC50) was 3.52.

In the case of `O=C1Nc2ccc(I)cc2/C1=C/c1cc(Br)c(O)c(Br)c1`, the pIC50 in assay [8] is < 5.00. For the compound `COc1cc(O)c2c(=O)n(-c3cccc(C(=O)N4CCCCC4)c3)ccc2c1NC(=O)Nc1ccc(C(=O)N2CCN(C)CC2)cc1`, the pIC50 in assay [9] is < 4.00. The compound `O=C(Cc1ccc(F)cc1)Nc1cc(SC[C@@H](O)CO)cc([N+](=O)[O-])c1` gave a pIC50 in assay [10] of 4.54. In [11], `CN(C)c1cc(-c2ccc3ncccc3c2)cnc1Cl` showed a pIC50 of 4.40.

The compound `Cc1ncnc(Nc2ccc(OCc3cccc(F)c3)c(Cl)c2)c1-c1ccc(CNC(C)C)cc1` had a pIC50 in [12] of 7.62. `Oc1cc(O)c2nc(-c3ccc(O)c(O)c3)sc2c1`: the pIC50 in assay [7] was 3.89. In the case of `C=C=CCCCOc1cc2c(Nc3ccc(F)c(Cl)c3)ncnc2cc1OC`, in [13], the GI50 came out at 268 nM. This lies in the sub-micromolar range. In [14], `C=C(CN1CCOCC1)C(=O)Nc1ccc2ncnc(Nc3cccc(Br)c3)c2c1` gave a negative logarithm of the IC50 (pIC50) of 6.89. `FC(F)(F)c1cccc(Nc2ncnc3ccccc23)c1` had a pIC50 in assay [5] of 6.24. In turn, `CS(=O)(=O)Nc1ccc(-c2c(F)cnc3[nH]c4cnc(-c5cccnc5)cc4c23)cc1` gave a pIC50 in assay [15] of 6.00 to 7.00. Take `O=C1NCN2N=C(Sc3ccc(F)cc3)C=CC2=C1c1c(Cl)cccc1Cl`: the pIC50 in assay [16] is 6.41.

Consider `Oc1ccc(-c2nc3ccc(O)cc3s2)cc1`, for which the pIC50 in assay [7] was 3.89. Compound `O=c1ncn2nc(Sc3ccc(Cl)c(Cl)c3)ccc2c1-c1c(Cl)cccc1Cl` showed a pIC50 in assay [17] of 5.66. Take `Cc1ncnc(Nc2ccc(OCc3cccc(F)c3)c(Cl)c2)c1-c1ccc(CNC2CC2)cc1`: the pIC50 in [12] was 7.01. `CS(=O)(=O)Nc1cccc(-c2cc(OCc3ccccn3)nc(N3CCOCC3)n2)c1`: the pIC50 in assay [18] is < 5.00. In [19], this compound came in with a GI50 of 16000 nM.

On to `Cn1c(NCc2cccc(C(F)(F)F)c2)cc(=O)n(C)c1=O`, for which the pIC50 in [10] is < 4.30. For the compound `COc1cnc2[nH]c3cnc(-c4cccnc4)cc3c2c1-c1ccc(NS(C)(=O)=O)cc1`, the pIC50 in assay [15] was 7.00 to 9.00. The compound `Cc1ccccc1SC1=NN2CNC(=O)C(c3c(Cl)cccc3Cl)=C2C=C1` had a pIC50 in assay [16] of 6.68. In assay [18], `CS(=O)(=O)Nc1cccc(-c2cc(N3CCOCC3)nc(OCc3ccccn3)n2)c1` showed a pIC50 of 5.21. The same compound showed a GI50 in assay [19] of 13500 nM. In the case of `C#Cc1cccc(Nc2ncnc3cc(OC)c(OCCCCCCC(=O)O)cc23)c1`, in assay [6], the pIC50 was ≥ 7.00. Take `CNc1nccc(-c2cn(C(C)C)nc2-c2cc(Cl)cc(NS(C)(=O)=O)c2F)n1`: in assay [20], the pIC50 is 4.77. With `C#CCCCN1CCN(Cc2c(C)ncnc2Nc2ccc(OCc3cccc(F)c3)c(Cl)c2)CC1`, the pIC50 in assay [12] is 8.05. Take `COC(=O)N[C@@H](C)CNc1nccc(-c2cn(C(C)C)nc2-c2cc(Cl)cc(NS(C)(=O)=O)c2F)n1`: the pIC50 in [20] is 5.66.

As a reminder, the pIC50 is −log10 of the IC50, conventionally taken in molar units. High values mean a small IC50, low ones a large IC50. As a reminder, the GI50 is the concentration at which growth is held to half of that of the control. A low value points to greater sensitivity of the cells.
